We go through 41 molecules from patent US10485815B2, “Substituted nucleosides, nucleotides and analogs thereof” (Alios BioPharma, Inc., priority 2012, dated 2019).

SMILES strings stand for the structures. Like-named read-outs stand apart in the source and are kept apart here.

One assay deals with RSV A2 (ATCC: VR-1540). In words: RSV RT-PCR based assay in HEp-2 cells. It counts as cell-based. Particulars: human respiratory syncytial virus.
For assay [1], the system named is Influenza strain A/WSN/33 (H1N1). In words: microbe, parasite or virus in culture. The assay is classed as cell-based. Particulars: A549, 20 h, read-out: % Inhibition.
Another assay concerns the target RSV polymerase (Human respiratory syncytial virus A, UniProt P28887). In words: biochemical.
Setting [2] is: 96 h, RT-PCR assay, HEp-2 cells, RSV A2 MOI 0.1, 4 days after infection, read-out: EC50.

RSV polymerase, sequence (P28887 whole entry, looked up): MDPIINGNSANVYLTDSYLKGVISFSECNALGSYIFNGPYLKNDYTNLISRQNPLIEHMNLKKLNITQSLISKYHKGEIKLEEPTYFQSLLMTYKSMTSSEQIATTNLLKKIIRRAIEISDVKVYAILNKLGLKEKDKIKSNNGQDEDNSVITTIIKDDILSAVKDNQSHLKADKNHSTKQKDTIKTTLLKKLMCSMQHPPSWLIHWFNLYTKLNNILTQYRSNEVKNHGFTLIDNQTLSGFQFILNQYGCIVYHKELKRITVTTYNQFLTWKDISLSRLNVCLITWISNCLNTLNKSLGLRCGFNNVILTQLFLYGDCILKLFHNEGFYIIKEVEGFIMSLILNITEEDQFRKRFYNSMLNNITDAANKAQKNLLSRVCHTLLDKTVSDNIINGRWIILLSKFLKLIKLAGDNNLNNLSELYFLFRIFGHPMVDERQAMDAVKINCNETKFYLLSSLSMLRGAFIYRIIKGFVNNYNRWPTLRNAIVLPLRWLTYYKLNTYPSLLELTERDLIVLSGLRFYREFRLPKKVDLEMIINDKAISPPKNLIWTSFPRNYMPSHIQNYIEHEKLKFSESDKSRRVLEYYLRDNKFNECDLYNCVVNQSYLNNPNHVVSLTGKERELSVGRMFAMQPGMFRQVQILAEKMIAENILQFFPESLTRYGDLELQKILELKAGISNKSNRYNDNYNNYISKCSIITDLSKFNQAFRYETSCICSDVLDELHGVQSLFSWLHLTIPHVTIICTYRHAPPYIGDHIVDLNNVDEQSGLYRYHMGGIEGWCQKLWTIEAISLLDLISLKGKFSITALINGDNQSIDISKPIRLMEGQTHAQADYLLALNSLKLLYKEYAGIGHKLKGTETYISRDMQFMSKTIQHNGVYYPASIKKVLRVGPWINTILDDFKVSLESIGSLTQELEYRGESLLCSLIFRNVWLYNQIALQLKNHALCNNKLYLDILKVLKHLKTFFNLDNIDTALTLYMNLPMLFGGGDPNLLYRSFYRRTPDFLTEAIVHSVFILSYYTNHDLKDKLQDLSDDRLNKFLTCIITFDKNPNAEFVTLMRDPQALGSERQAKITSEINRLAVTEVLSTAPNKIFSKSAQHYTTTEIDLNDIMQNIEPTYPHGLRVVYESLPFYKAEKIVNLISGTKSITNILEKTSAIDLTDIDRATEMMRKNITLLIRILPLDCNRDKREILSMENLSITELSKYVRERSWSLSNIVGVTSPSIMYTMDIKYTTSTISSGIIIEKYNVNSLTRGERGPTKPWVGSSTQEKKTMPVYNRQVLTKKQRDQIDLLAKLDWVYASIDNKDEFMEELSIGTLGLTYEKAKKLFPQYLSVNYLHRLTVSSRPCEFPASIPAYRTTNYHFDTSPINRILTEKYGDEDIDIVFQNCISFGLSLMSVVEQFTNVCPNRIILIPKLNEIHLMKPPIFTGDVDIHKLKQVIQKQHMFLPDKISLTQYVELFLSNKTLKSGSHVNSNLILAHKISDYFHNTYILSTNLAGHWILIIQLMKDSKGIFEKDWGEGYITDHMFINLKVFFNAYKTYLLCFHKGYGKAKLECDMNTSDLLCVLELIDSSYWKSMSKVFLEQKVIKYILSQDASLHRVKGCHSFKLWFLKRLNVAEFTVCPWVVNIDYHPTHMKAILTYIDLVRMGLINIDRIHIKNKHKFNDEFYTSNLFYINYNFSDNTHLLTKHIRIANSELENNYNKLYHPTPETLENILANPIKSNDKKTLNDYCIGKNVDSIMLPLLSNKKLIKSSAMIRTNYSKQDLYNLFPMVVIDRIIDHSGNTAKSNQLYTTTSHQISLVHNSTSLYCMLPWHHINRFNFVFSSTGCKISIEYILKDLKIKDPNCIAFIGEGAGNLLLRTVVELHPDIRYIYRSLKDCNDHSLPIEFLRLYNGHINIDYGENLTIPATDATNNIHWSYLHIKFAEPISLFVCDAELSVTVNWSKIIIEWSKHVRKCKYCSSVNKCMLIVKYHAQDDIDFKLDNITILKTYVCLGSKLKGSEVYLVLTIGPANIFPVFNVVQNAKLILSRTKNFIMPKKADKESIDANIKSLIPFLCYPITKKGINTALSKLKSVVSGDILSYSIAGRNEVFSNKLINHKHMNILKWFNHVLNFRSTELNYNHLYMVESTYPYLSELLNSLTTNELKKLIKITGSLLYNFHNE

`C#C[C@]1(CO)O[C@@H](n2ccc(N)nc2=O)[C@H](F)[C@@H]1O` [Compound 1a]: the EC50 in the assay on RSV A2 (ATCC: VR-1540) (HEp-2, 96 h) was in the range of 10 to 100 µM; in assay [1], 100 to 250 µM.
Regarding `C=C=C[C@]1(CO)O[C@@H](n2ccc(N)nc2=O)[C@H](F)[C@@H]1O` [Compound 11a], the EC50 in the assay on RSV A2 (ATCC: VR-1540) (setting [2]) lay within 1 to 10 µM.
As for `Nc1ccn([C@@H]2O[C@@]3(CO)CO[C@H]3[C@H]2F)c(=O)n1` [Compound 12a], the EC50 in assay [1] lay in the range of 100 to 250 µM.
In turn, `CC[C@]1(COP2(=O)OCc3cccc(C)c3O2)O[C@@H](n2ccc(N)nc2=O)[C@H](F)[C@@H]1O` (some centres unmarked) [Compound 14a] showed an EC50 in the assay with RSV A2 (ATCC: VR-1540) (HEp-2, 96 h) below 1 µM.
Consider `C=C[C@]1(COP(=O)(N[C@@H](C)C(=O)OC(C)C)Oc2ccccc2)O[C@@H](n2ccc(N)nc2=O)[C@H](F)[C@@H]1O` (some centres unmarked) [Compound 16a], for which the EC50 in assay [1] was 100 to 250 µM.
With `C=C[C@]1(COP(=O)(N[C@@H](C)C(=O)OC(C)C)Oc2ccccc2)O[C@@H](n2ccc(=O)[nH]c2=O)[C@H](F)[C@@H]1O` (some centres unmarked) [Compound 17a], the EC50 in assay [1] is 100 to 250 µM.
For the molecule `C#C[C@]1(COP(=O)(N[C@@H](C)C(=O)OC(C)C)Oc2ccccc2)O[C@@H](n2ccc(=O)[nH]c2=O)[C@H](F)[C@@H]1O` (some centres unmarked) [Compound 18a], the EC50 in assay [1] is 100 to 250 µM.
As to `CCC[C@]1(CO)O[C@@H](n2ccc(N)nc2=O)[C@H](F)[C@@H]1O` [Compound 21a], the EC50 is below 1 µM in the assay on RSV A2 (ATCC: VR-1540) (setting [2]) and 100 to 250 µM in assay [1].
For `C=C[C@]1(CO)O[C@@H](n2cnc3c(=O)[nH]c(N)nc32)[C@H](F)[C@@H]1O` [Compound 25a, 2′-Deoxy-2′-fluoro-4′-C-(ethenyl)guanosine], in that order: 10 to 100 µM and below 20 µM.
The corresponding values for `N#C[C@]1(CO)O[C@@H](n2cnc3c(=O)[nH]c(N)nc32)[C@H](F)[C@@H]1O` [Compound 26a] are 1 to 10 µM and 100 to 250 µM.
For `C#C[C@]1(CO)O[C@@H](n2cnc3c(=O)[nH]c(N)nc32)[C@H](F)[C@@H]1O` [Compound 27a], in that order: 1 to 10 µM and 20 to 100 µM.
For `CO[C@]1(CO)O[C@@H](n2cnc3c(=O)[nH]c(N)nc32)[C@H](F)[C@@H]1O` [Compound 28a], the figures for the EC50 (in the assay with RSV A2 (ATCC: VR-1540) (setting [2]); in assay [1]) were 1 to 10 µM and 100 to 250 µM, respectively.
On to `CC(C)(C)C(=O)OCOP(=O)(OCOC(=O)C(C)(C)C)OC[C@@]1(CCl)O[C@@H](n2ccc(N)nc2=O)[C@H](F)[C@@H]1O` [Compound 30a], for which the EC50 was below 1 µM with RSV A2 (ATCC: VR-1540) (setting [2]) and 100 to 250 µM in assay [1].
With `CC[C@]1(COP(=O)(OCOC(=O)C(C)(C)C)OCOC(=O)C(C)(C)C)O[C@@H](n2ccc(N)nc2=O)[C@H](F)[C@@H]1O` [Compound 31a], the EC50 in the assay with RSV A2 (ATCC: VR-1540) (setting [2]) was in the range of 1 to 10 µM; in assay [1], 100 to 250 µM.
As to `CC[C@]1(COP(=O)(OCCSC(=O)C(C)(C)C)OCCSC(=O)C(C)(C)C)O[C@@H](n2ccc(N)nc2=O)[C@H](F)[C@@H]1O` [Compound 33a], the EC50 with RSV A2 (ATCC: VR-1540) (setting [2]) was below 1 µM.
Molecule `CC[C@]1(COP(=O)(O)OP(=O)(O)OP(=O)(O)O)O[C@@H](n2ccc(N)nc2=O)[C@H](F)[C@@H]1O` [Compound 36a] came in with an EC50 at RSV polymerase below 2 µM.
In the case of `C#C[C@]1(COP(=O)(O)OP(=O)(O)OP(=O)(O)O)O[C@@H](n2ccc(N)nc2=O)[C@H](F)[C@@H]1O` [Compound 36c], the EC50 on RSV polymerase was below 2 µM.
The same measure, in the same setting: in the case of `CC(F)[C@]1(COP(=O)(O)OP(=O)(O)OP(=O)(O)O)O[C@@H](n2ccc(N)nc2=O)[C@@H](F)[C@H]1O` (some centres unmarked) [Compound 36e] it was below 2 µM.
At RSV polymerase, `CC(C)CC[C@]1(COP(=O)(O)OP(=O)(O)OP(=O)(O)O)O[C@@H](n2ccc(N)nc2=O)[C@H](F)[C@@H]1O` [Compound 36i] gave an EC50 of 2 to 10 µM.
The same measure, in the same setting: in the case of `C=C(C)[C@]1(COP(=O)(O)OP(=O)(O)OP(=O)(O)O)O[C@@H](n2ccc(N)nc2=O)[C@H](F)[C@@H]1O` [Compound 36j] it was 2 to 10 µM.
For `CC[C@]1(CO)O[C@@H](n2cnc3c(=O)[nH]c(N)nc32)[C@H](F)[C@@H]1O` [Compound 39a], the figures for the EC50 (with RSV A2 (ATCC: VR-1540) (setting [2]); in assay [1]) were 1 to 10 µM and 20 to 100 µM, respectively.
Consider `Nc1ccn([C@@H]2O[C@@](CO)(C3CC3)[C@@H](O)[C@H]2F)c(=O)n1` [Compound 41a], for which the EC50 in the assay with RSV A2 (ATCC: VR-1540) (setting [2]) was 1 to 10 µM.
On the same count and under the same terms, in the case of `CC(C)(C)C(=O)OCOP(=O)(OCOC(=O)C(C)(C)C)OC[C@@]1(CCl)O[C@@H](n2ccc(=O)[nH]c2=O)[C@H](F)[C@@H]1O` [Compound 45a] it was 10 to 100 µM; in that of `CC(C)C(=O)OC[C@@]1(CCl)O[C@@H](n2ccc(N)nc2=O)[C@H](F)[C@@H]1OC(=O)C(C)C` [Compound 46a], 1 to 10 µM.
Still for that read-out and setting: next, `CCCCC(=O)OC[C@@]1(CCl)O[C@@H](n2ccc(N)nc2=O)[C@H](F)[C@@H]1OC(=O)CCCC` [Compound 48a]: 1 to 10 µM.
Regarding `O=c1ccn([C@@H]2O[C@](CCl)(COP(=O)(O)OP(=O)(O)OP(=O)(O)O)[C@@H](O)[C@H]2F)c(=O)[nH]1` [Compound 56a], the EC50 at RSV polymerase was in the range of 2 to 10 µM.
On the same count and under the same terms, in the case of `Nc1ccn([C@@H]2O[C@](CF)(COP(=O)(O)OP(=O)(O)OP(=O)(O)O)[C@@H](O)[C@H]2F)c(=O)n1` [Compound 56c] it was below 2 µM; in that of `Nc1ccn([C@@H]2O[C@@](COP(=O)(O)OP(=O)(O)OP(=O)(O)O)(C3CC3)[C@@H](O)[C@H]2F)c(=O)n1` [Compound 56d], below 2 µM.
Still for that read-out and setting: next, `CC(F)[C@]1(COP(=O)(O)OP(=O)(O)OP(=O)(O)O)O[C@@H](n2ccc(N)nc2=O)[C@H](F)[C@@H]1O` (some centres unmarked) [Compound 56e]: below 2 µM.
As for `O=c1nc(NO)ccn1[C@@H]1O[C@@](CO)(CCl)[C@@H](O)[C@H]1F` [Compound 73a], the EC50 in the assay on RSV A2 (ATCC: VR-1540) (setting [2]) was 10 to 100 µM.
As for `Nc1nc(=O)n([C@@H]2O[C@@](CO)(CCl)[C@@H](O)[C@H]2F)cc1F` [Compound 76a], the EC50 in the assay on RSV A2 (ATCC: VR-1540) (setting [2]) was below 1 µM.
As to `Nc1nc2c(ncn2[C@@H]2O[C@@](CO)(CCl)[C@@H](O)[C@H]2F)c(=O)[nH]1` [Compound 81a], the EC50 in the assay on RSV A2 (ATCC: VR-1540) (setting [2]) lay in the range of 1 to 10 µM.
As to `C[C@]1(CO)O[C@@H](n2cnc3c(=O)[nH]c(N)nc32)[C@H](F)[C@@H]1O` [Compound 82a], in the assay on RSV A2 (ATCC: VR-1540) (setting [2]), the EC50 was below 1 µM.
Consider `COC[C@]1(COP(=O)(O)OP(=O)(O)OP(=O)(O)O)O[C@@H](n2ccc(N)nc2=O)[C@@H](F)[C@H]1O` [Compound 97a], for which the EC50 at RSV polymerase is below 2 µM.
On RSV polymerase, `CSC[C@]1(COP(=O)(O)OP(=O)(O)OP(=O)(O)O)O[C@@H](n2ccc(N)nc2=O)[C@@H](F)[C@H]1O` [Compound 97b] yielded an EC50 below 2 µM.
As for `Nc1ccn([C@@H]2O[C@](CBr)(COP(=O)(O)OP(=O)(O)OP(=O)(O)O)[C@H](O)[C@@H]2F)c(=O)n1` [Compound 97c], at RSV polymerase, the EC50 is below 2 µM.
At RSV polymerase, `Nc1nc(=O)n([C@@H]2O[C@](CCl)(COP(=O)(O)OP(=O)(O)OP(=O)(O)O)[C@H](O)[C@@H]2F)cc1F` [Compound 97g] came in with an EC50 below 2 µM.
Take `Nc1ncnc2c1ncn2[C@@H]1O[C@](CCl)(COP(=O)(O)OP(=O)(O)OP(=O)(O)O)[C@@H](O)[C@H]1F` [Compound 98b]: the EC50 on RSV polymerase was below 2 µM.
Consider `CC(C)OC(=O)OCOP(=O)(OCOC(=O)OC(C)C)OC[C@@]1(C2CC2)O[C@@H](n2ccc(N)nc2=O)[C@H](F)[C@@H]1O` [Compound 105a], for which the EC50 in the assay with RSV A2 (ATCC: VR-1540) (setting [2]) lay in the range of 10 to 100 µM.
Regarding `COC[C@]1(COP(=O)(OCOC(=O)OC(C)C)OCOC(=O)OC(C)C)O[C@@H](n2ccc(N)nc2=O)[C@H](F)[C@@H]1O` [Compound 106a], in the assay on RSV A2 (ATCC: VR-1540) (setting [2]), the EC50 lay in the range of 10 to 100 µM.
On to `CC[C@]1(COC(=O)C(C)C)O[C@@H](n2ccc(N)nc2=O)[C@H](F)[C@@H]1OC(=O)C(C)C` [Compound 108a], for which, in the assay with RSV A2 (ATCC: VR-1540) (setting [2]), the EC50 was 1 to 10 µM.
